In patent US9326972B2, “Use of phenylmethimazoles, methimazole derivatives, and tautomeric cyclic thiones for the treatment of autoimmune/inflammatory diseases associated with toll-like receptor overexpression” (Ohio University, priority 2004, dated 2016):

Experiments:
ISRE = experiment: ISRE-Luc reporter gene in FRTL-5 thyrocytes; format: cell-based, rat
Description: Cells were co-transfected with ISRE-Luc and pRLTk-Int and then treated without (none) or with Poly I:C (100 μg/ml), LPS (100 ng/ml), IL-1β (10 ng/ml) TNF-α (25 ng/ml), IFN-β (100 U/ml) or IFN-γ (1000 U/ml) in the presence of DMSO (−) or C10 for 6 hours. Data were obtained using the Dual Luciferase Assay system. The effect on the ISRE element is not duplicated by an NF-κB reporter plasmid despite the similarity of the two elements: ([…])5 (SEQ ID NO:3) vs. ([…])5 (SEQ ID NO:4), respectively. Data are representative of multiple experiments.
Plasmids for Reporter Gene Assays. Human IRF-3 was amplified from human cDNA and cloned into pCR 2.1 by the TOPO/TA (Invitrogen, Carlsbad, Calif.) cloning method, and then sequenced. IRF-3 was then excised by EcoRI digestion and subcloned into pCMV-BD (Stratagene, La Jolla, Calif.) for use in transactivation assays. To construct IFN-β-luc the human IFN-β promoter sequence was amplified from human genomic DNA (Clontech, Palo Alto, Calif.)) using Ex Taq™ Polymerase (Takara, Madison, Wis.). The PCR fragment contained human IFN-β promoter sequence from −125 to +34 relative to the transcription start site (+1) and incorporated KpnI and XhoI restriction sites at the 5′ and 3′ ends, respectively. The primers were as follows: hIFN-β (−125) KpnI (5′-[…]-3′) (SEQ ID NO:9) and hIFN-β (+34) XhoI (5′-[…]-3′). […]

NOD mice = experiment: Glucosuria in NOD mice, infection/Coxsackie virus-induced Type 1 diabetes; format: in vivo, mouse
From the text: Mice were housed in germ free facilities, termed clean, or normal facilities where viral infections can occur, termed dirty. Animals showing urine Tes-Tape positivity greater than 1+ are considered positive and to have diabetes (L. S. Wicker, et al., Diabetes, 35:855-60 (1986)). In experiments in a “dirty” animal facility, C10 was effective in retarding the development of glucosuria in the NOD mice. When this was repeated in a “clean” or germ free laboratory, no effect of C10 was noted. What was noted, however, was the onset of glucosuria in the mice was much earlier in the animals maintained in “dirty” as opposed to “clean” mouse facilities. Further, in experiments with 8 mice in each group, even in a dirty facility, the injection of CVB4 Edwards Coxsackie virus advanced the expression of glucosuria (last two rows).
Induction of Diabetes and treatment with drugs. NOD/Lt female mice were from the Jackson Laboratory (Bar Harbor, Me.). All experiments were carried out in accordance with “Guide for Care and Use of Laboratory Animals” (NIH Publication No. 85-23, revised 1985). Mice were injected with 200 μl PBS or 5×10^5 PFU of the CVB4 Edwards Coxsackie virus strain ip (D. V. Serreze, et al., J Virol, 79:1045-52 (2005)). Mice were treated daily with i/p injections of C-10, MMI, 2.5% DMSO(C10 carrier control), or PBS (MMI carrier control). After injections, blood and urinary glucose levels were monitored weekly using Chemstrips (Boehringer Mannheim). Consecutive values of >240 mg/dl on two occasions >24 h apart were considered diagnostic of diabetes. Experiments used 8 mice/group in up to 3 experiments.

[1] = + CVB4 Edwards Coxsackie virus, Dirty facility

SMILES: Cn1c(-c2ccccc2)cnc1S [Compound C10, 5-Phenylmethimazole]
- ISRE activation by poly (I:C), LPS, IL-1β, TNF-α, IFN-β and IFN-γ (ISRE-Luc) (ISRE; FRTL-5, 6 hours): effective inhibitor
- ISRE-Luc Relative Luciferase Activity % of Control (±15%), +C10 (ISRE; FRTL-5, Ligand None, 6 hours): 100 % of Control
- glucosuria and death in Coxsackie's virus induced NOD mouse model of diabetes (NOD mice): effective in retarding glucosuria and death
- Glucosuria % of Total, Week 1 (NOD mice; [1]): 0 % of Total
- Glucosuria % of Total, Week 4 (NOD mice; [1]): 0 % of Total
- Glucosuria % of Total, Week 8 (NOD mice; [1]): 20 % of Total
- Glucosuria % of Total, Week 12 (NOD mice; [1]): 30 % of Total
- Glucosuria % of Total, Week 1 (NOD mice; Clean facility): 0 % of Total
- Glucosuria % of Total, Week 4 (NOD mice; Clean facility): 0 % of Total
- Glucosuria % of Total, Week 8 (NOD mice; Clean facility): 0 % of Total
- Glucosuria % of Total, Week 12 (NOD mice; Clean facility): 20 % of Total
- Glucosuria % of Total, Week 16 (NOD mice; Clean facility): 40 % of Total
- Glucosuria % of Total, Week 20 (NOD mice; Clean facility): 100 % of Total
- Glucosuria % of Total, Week 1 (NOD mice; Dirty facility): 0 % of Total
- Glucosuria % of Total, Week 4 (NOD mice; Dirty facility): 0 % of Total
- Glucosuria % of Total, Week 8 (NOD mice; Dirty facility): 0 % of Total
- Glucosuria % of Total, Week 12 (NOD mice; Dirty facility): 0 % of Total
